Data taken from patent US20230080054A1 (ILDONG PHARMACEUTICAL CO., LTD., priority 2021, published 2023).

Biological target: T1, human ANO6 (Homo sapiens, UniProt Q4KMQ2)
T1 construct: expressed in transfected cells
T1 sequence (Q4KMQ2 1-931 isoform Q4KMQ2-2): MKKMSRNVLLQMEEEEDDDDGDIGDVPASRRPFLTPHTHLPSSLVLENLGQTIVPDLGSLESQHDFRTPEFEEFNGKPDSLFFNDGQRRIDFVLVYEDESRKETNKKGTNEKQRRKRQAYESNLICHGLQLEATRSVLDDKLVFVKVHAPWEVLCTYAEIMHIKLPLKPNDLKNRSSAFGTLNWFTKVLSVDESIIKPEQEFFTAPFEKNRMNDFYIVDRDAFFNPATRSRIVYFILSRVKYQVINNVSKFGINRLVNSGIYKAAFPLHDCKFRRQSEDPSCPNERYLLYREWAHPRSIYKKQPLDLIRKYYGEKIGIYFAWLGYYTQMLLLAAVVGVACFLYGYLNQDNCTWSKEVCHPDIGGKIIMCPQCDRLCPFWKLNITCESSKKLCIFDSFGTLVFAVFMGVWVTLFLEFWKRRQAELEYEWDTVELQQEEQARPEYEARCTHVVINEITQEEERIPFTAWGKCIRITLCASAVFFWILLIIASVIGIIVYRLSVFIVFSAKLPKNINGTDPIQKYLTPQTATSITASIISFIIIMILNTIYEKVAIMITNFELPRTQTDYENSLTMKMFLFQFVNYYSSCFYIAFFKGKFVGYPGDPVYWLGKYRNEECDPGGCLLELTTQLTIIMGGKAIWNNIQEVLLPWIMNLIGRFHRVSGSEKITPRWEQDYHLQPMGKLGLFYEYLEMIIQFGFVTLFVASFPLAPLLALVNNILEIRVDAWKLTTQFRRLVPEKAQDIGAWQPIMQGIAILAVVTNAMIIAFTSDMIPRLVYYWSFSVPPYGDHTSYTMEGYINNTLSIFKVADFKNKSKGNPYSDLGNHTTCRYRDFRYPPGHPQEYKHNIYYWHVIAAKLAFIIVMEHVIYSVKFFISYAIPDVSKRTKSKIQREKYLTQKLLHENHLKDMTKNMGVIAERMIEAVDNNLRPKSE
Experiment: YFP quenching assay (ANO6 ion channel activity)
Assay type: cell-based
Settings: 10 μM ionomycin; for inhibition at 1 µM: test compound 1 μM, read-out: Inhibition Level 1 μM; for inhibition at 30 µM: test compound 30 μM, read-out: Inhibition Level 30 μM
From the text: Example 3: YFP Quenching Assay
1. Materials and Instruments
Ionomycin (Alomonelab cat. #I-700), FLUOstar Omega microplate reader (BMG Labtech, Ortenberg, Germany), and MARS Data Analysis Software (BMG Labtech)
Fisher rat thyroid (FRT) cells stably expressing human ANO6 (GenBank accession no. NP_001191732.1, provided by J. H. Nam, Dongguk University College of Medicine, Korea) and halide sensor mutant YFP-H148Q/I152L/F46L) were constructed and grown in Dulbecco's modified Eagle's medium Nutrient Mixture F-12 (DMEM/F-12) supplemented 10% FBS, 100 units/mL penicillin, 500 μg/mL hygromycin B and 100 μg/mL neomycin.
Fisher rat thyroid (FRT) cells stably expressing human ANO6 and halide sensor mutant YFP (H148Q/I152L/F46L) were seeded in black walled 96 well plates and incubated in a 37° C., 5% CO2 incubator to reach about 100% cell confluency. Then, each well of the 96 well plates were washed for several times with phosphate buffered saline (PBS), and 50 μL of PBS was added to each well. Test compounds (100× in DMSO) were added to each well to be 1% v/v DMSO. After incubation for 10 minutes in 40° C., the 96 well plates were transferred to a plate reader, and YFP fluorescence changed by SCN-introduced into cells through activated ANO6 were measured by the following steps.
(1) YFP fluorescence signals were recorded in every 0.4 seconds.
(2) Basal YFP fluorescence signals were recorded for 1 second.
(3) 140 mM SCN-(50 μL) containing 10 μM ionomycin was injected to each well, and YFP fluorescence signals were recorded.
The inhibitory activity (%) of each of the test compounds was obtained by the following steps.
(1) Background signals were subtracted from recording values, and the resulting values were converted to relative percentages. The values at 0 second were set to be 100%.
(2) Differences between the values at 3.6 seconds and those of at 7.6 seconds were calculated.
(3) In each row of 96 well plate, the inhibitory activity of each of the test compounds was calculated as percentages. The inhibitory activity of a negative control group to which neither compounds nor ionomycin were treated was set to be 100%, and the inhibitory activity of a positive control group to which ionomycin was treated and compounds were not treated was set to be 0%.
(4) The assay was performed in duplicate or triplicate, and the results were averaged.

| SMILES | inhibition at 1 µM | inhibition at 30 µM |
| --- | --- | --- |
| Cc1ccc(CNC(=O)c2cccc(Nc3ccc(C4CCOCC4)nn3)c2)o1 [Compound 49, N-[(5-methylfuran-2-yl)methyl]-3-{[6-(oxan-4-yl)pyridazin-3-yl]amino}benzamide] | < 30% |  |
| CCc1ccc(Nc2cccc(C(=O)NCc3ccc(C)o3)c2)nn1 [Compound 84, 3-[(6-ethylpyridazin-3-yl)amino]-N-[(5-methylfuran-2-yl)methyl]benzamide] | < 30% |  |
| Cc1ccc(CNC(=O)c2cccc(Nc3ncc(-c4ccc(C(F)(F)F)cc4)cn3)c2)o1 [Compound 100, N-[(5-methylfuran-2-yl)methyl]-3-({5-[4-(trifluoromethyl)phenyl]pyrimidin-2-yl}amino)benzamide] | < 30% |  |
| O=C(NCCc1ccccc1)c1cccc(Nc2ncc(-c3cccc(F)c3)cn2)c1 [Compound A88] | 30 to 60% |  |
| O=C(NCCCN1CCOCC1)c1cccc(Nc2ccc(-c3ccccc3)nn2)c1 [Compound 15, N-[3-(morpholin-4-yl)propyl]-3-[(6-phenylpyridazin-3-yl)amino]benzamide] | < 30% | 30 to 60% |
| COc1ccc(OC)c(CNC(=O)c2cccc(Nc3ccc(-c4ccccc4)nn3)c2)c1 [Compound A60] | 30 to 60% | ≥ 60% |
| NC(=O)c1ccc(Nc2ccc(-c3ccccc3)nn2)cc1 [Compound A86] |  | 30 to 60% |
| CCN(CC)CCCNC(=O)c1cccc(Nc2ccc(-c3ccccc3)nn2)c1 [Compound A59] | < 30% | 30 to 60% |
| Cc1ccc(-c2ccc(Nc3cccc(C(=O)NCc4ccc(Br)cc4)c3)nn2)cc1 [Compound A30] |  | < 30% |
| CCOC(=O)c1ccc(-c2cnc(Nc3cccc(C(=O)NCc4ccc(C)o4)c3)nc2)cc1 [Compound 102, ethyl 4-{2-[(3-{[(5-methylfuran-2-yl)methyl]carbamoyl}phenyl)amino]pyrimidin-5-yl}benzoate] | < 30% |  |
| COCCCNC(=O)c1cccc(Nc2ccc(-c3ccccc3)nn2)c1 [Compound A69] | 30 to 60% | ≥ 60% |
| COc1ccc(CNC(=O)c2cccc(Nc3ccc(-c4ccccc4)nn3)c2)c(OC)c1 [Compound A61] | 30 to 60% | ≥ 60% |
| O=C(NCCc1ccncc1)c1cccc(Nc2ccc(-c3ccccc3)nn2)c1 [Compound 27, 3-[(6-phenylpyridazin-3-yl)amino]-N-[2-(pyridin-4-yl)ethyl]benzamide] | 30 to 60% | ≥ 60% |
| Cc1ccc(CNC(=O)c2ccc(Nc3ccc(-c4ccccc4)nn3)cc2)o1 [Compound 22, N-[(5-methylfuran-2-yl)methyl]-4-[(6-phenylpyridazin-3-yl)amino]benzamide] |  | < 30% |
| Cc1cnnc(Nc2cccc(C(=O)NCc3ccc(C)o3)c2)c1 [Compound 42, N-[(5-methylfuran-2-yl)methyl]-3-[(5-methylpyridazin-3-yl)amino]benzamide] |  | < 30% |
| Cc1cccc(-c2cnc(Nc3cccc(C(=O)NCc4ccc(C)o4)c3)nc2)c1 [Compound A18] | 30 to 60% | 30 to 60% |
| Cc1ccc(CNC(=O)c2cccc(Nc3ncc(-c4cc5ccccc5o4)cn3)c2)o1 [Compound 111, 3-{[5-(1-benzofuran-2-yl)pyrimidin-2-yl]amino}-N-[(5-methylfuran-2-yl)methyl]benzamide] | < 30% |  |

| SMILES | inhibition at 1 µM | inhibition at 30 µM |
| --- | --- | --- |
| Cc1ccc(-c2ccc(Nc3cccc(C(=O)NCc4ccc(C)o4)c3)nn2)cc1 [Compound A7] | < 30% | ≥ 60% |
| Cc1ccc(CNC(=O)c2cccc(Nc3ccc(-c4ccccn4)nn3)c2)o1 [Compound 23, N-[(5-methylfuran-2-yl)methyl]-3-{[6-(pyridin-2-yl)pyridazin-3-yl]amino}benzamide] | < 30% | ≥ 60% |
| COc1cccc(CNC(=O)c2cccc(Nc3ccc(-c4ccc(F)cc4)nn3)c2)c1 [Compound A29] | 30 to 60% | ≥ 60% |
| CN(C)CCNC(=O)c1cccc(Nc2ncc(-c3ccccc3)cn2)c1 [Compound 95, N-[2-(dimethylamino)ethyl]-3-[(5-phenylpyrimidin-2-yl)amino]benzamide] | < 30% |  |
| Cc1ccc(Nc2cccc(C(=O)NCc3ccc(C)o3)c2)nn1 [Compound 47, N-[(5-methylfuran-2-yl)methyl]-3-[(6-methylpyridazin-3-yl)amino]benzamide] | < 30% |  |
| Cc1ccc(CNC(=O)c2cccc(Nc3ccc(C4CCCO4)nn3)c2)o1 (centres unmarked) [Compound 86, N-[(5-methylfuran-2-yl)methyl]-3-{[6-(oxolan-2-yl)pyridazin-3-yl]amino}benzamide] | < 30% |  |
| Cc1ccc(CNC(=O)c2cccc(Nc3ccc(C4CCN(C(=O)OC(C)(C)C)CC4)nn3)c2)o1 [Compound 69, tert-butyl 4-{6-[(3-{[(5-methylfuran-2-yl)methyl]carbamoyl}phenyl)amino]pyridazin-3-yl}piperidine-1-carboxylate] | < 30% |  |
| CCOC(=O)c1cccc(-c2cnc(Nc3cccc(C(=O)NCc4ccc(C)o4)c3)nc2)c1 [Compound 101, ethyl 3-{2-[(3-{[(5-methylfuran-2-yl)methyl]carbamoyl}phenyl)amino]pyrimidin-5-yl}benzoate] | < 30% |  |
| O=C(NCCN1CCCC1)c1cccc(Nc2ncc(-c3ccccc3)cn2)c1 [Compound 94, 3-[(5-phenylpyrimidin-2-yl)amino]-N-[2-(pyrrolidin-1-yl)ethyl]benzamide] | < 30% |  |
| O=C(NCCN1CCCCC1)c1cccc(Nc2ncc(-c3ccccc3)cn2)c1 [Compound 93, 3-[(5-phenylpyrimidin-2-yl)amino]-N-[2-(piperidin-1-yl)ethyl]benzamide] | < 30% |  |
| O=C(NCc1ccccn1)c1cccc(Nc2ccc(-c3ccccc3)nn2)c1 [Compound 19, 3-[(6-phenylpyridazin-3-yl)amino]-N-[(pyridin-2-yl)methyl]benzamide] | < 30% | ≥ 60% |
| NC(=O)c1cccc(Nc2ccc(-c3ccccc3)nn2)c1 [Compound 17, 3-[(6-phenylpyridazin-3-yl)amino]benzamide] |  | 30 to 60% |
| Cc1ccc(CNC(=O)c2cccc(Nc3ncc(-c4cccc(C(=O)O)c4)cn3)c2)o1 [Compound 108, 3-{2-[(3-{[(5-methylfuran-2-yl)methyl]carbamoyl}phenyl)amino]pyrimidin-5-yl}benzoic acid] | < 30% |  |
| CN(CCNC(=O)c1cccc(Nc2ccc(-c3ccccc3)nn2)c1)Cc1ccccc1 [Compound 124] | 30 to 60% |  |
| O=C(NCc1cccnc1)c1cccc(Nc2ccc(-c3ccccc3)nn2)c1 [Compound 20, 3-[(6-phenylpyridazin-3-yl)amino]-N-[(pyridin-3-yl)methyl]benzamide] | 30 to 60% | ≥ 60% |
| O=C(NC1COC1)c1cccc(Nc2ccc(-c3ccccc3)nn2)c1 [Compound 26, N-(oxetan-3-yl)-3-[(6-phenylpyridazin-3-yl)amino]benzamide] | 30 to 60% | ≥ 60% |
| O=C(NCCN1CCCCC1)c1cccc(Nc2ccc(-c3ccccc3)nn2)c1 [Compound A90] | < 30% |  |
